Holding throughout (format): cell-based
Test [1] relates to panel of solid tumor and hematopoietic cancer cell lines. The experiment in a line: MTT proliferation assay, panel of solid tumor and hematopoietic cancer cell lines. On the procedure:
(§1) In one study, in vitro cytotoxicity of a PPARγ agonist with a favorable toxicity profile (pioglitazone [Actos®]) was tested against two PPARγ antagonists (T0070907 and GW9662) in a panel of solid tumor and hematopoietic cancer cell lines, using an MTT proliferation assay.
(§2) In one exemplary method, stock solutions of the above referenced agents were dissolved in 50:50 DMSO:DMF and then diluted into cell growth medium. Concentrations of 2-40 micromolar over 5-7 days provided significant growth inhibition for a range of hematopoietic (NHL & MM) and epithelial lines (renal cell, colon, breast). […] Also, both antagonists were dissolved in a cyclodextrin-propylene glycol vehicle and administered to mice at doses of 7.5-15 mg/kg intraperitoneally daily for 3 weeks with mild-moderate toxicity.
Background: Tetrazolium assays rely on reduction of a dye to a coloured formazan, in cell work by metabolically active cells.

Test [2] has as its system Hematopoietic (NHL and MM) cell lines. Kind of test: MTT proliferation assay, hematopoietic (NHL and MM) cell lines. The note with it: unit printed only in the preceding sentence. As for the experimental part: as §1, §2
Another test deals with solid tumor lines. The experiment in a line: MTT proliferation assay, solid tumor lines. As for the experimental part:
as §1, §2

“Also recorded” adds a separate entry of the source. Where two headings read alike, the source gives them in different places. Where only a bound is given, the exact number is not on record here.

For `O=C(Nc1ccccc1)c1cc([N+](=O)[O-])ccc1Cl` [GW9662], the “effect of combination with the agonist pioglitazone on growth inhibition of cancer cell lines” value in test [1] is given as “additive increases in growth inhibition; also recorded: additive effects”.

As to `O=C(Nc1ccncc1)c1cc([N+](=O)[O-])ccc1Cl` [T0070907], in test [1], the “effect of combination with the agonist pioglitazone on growth inhibition of cancer cell lines” value is recorded as “additive increases in growth inhibition; also recorded: additive effects”. Further, the relative potency entry in test [1] (comparison of IC50 values) is “more potent than GW9662”.

As usually defined, the IC50 is the point on the concentration scale where inhibition reaches its midpoint. `CCc1ccc(CCOc2ccc(CC3SC(=O)NC3=O)cc2)nc1` (stereo not shown) [pioglitazone]: the IC50 is 82 to 125 µM in test [2] (MTT proliferation assay, range across NHL and MM lines, read-out: IC50 in hematopoietic (NHL and MM) cell lines (range over lines)); 101 ± 17.7 µM in test [2] (mean±SD across NHL and MM lines, read-out: IC50 in hematopoietic (NHL and MM) cell lines, mean±SD); at least 11.1 µM in the test on solid tumor lines (MTT proliferation assay, range across solid tumor lines, read-out: IC50 in solid tumor lines (range over lines)); 60.1 ± 28.1 µM with solid tumor lines (mean±SD across solid tumor lines, read-out: IC50 in solid tumor lines, mean±SD).

The record behind these values is patent US20060217425A1, “Methods of treating cancer using PPAR-gamma antagonists” (priority 2005, published 2006).
